Source: PubChem BioAssay AID1963961 (Molecular Pharmacology Branch, DTP, NCI, 2024)

Test system: K98450-129-R-PDC multicell spheroids, viability
Test: Anticancer human tumor K98450-129-R-PDC patient-derived colon adenocarcinoma cell line growth inhibition [PI3K]
Settings: for IC50: curve of first compound; for viability, T/C: stronger effect = lower value; active = viability on the fitted dose curve at most 10% of control; inactive = the rest
Method in brief: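 Stroma-containing spheroids: tumor line, pooled-donor HUVEC, hMSC. Treatments: targeted agents with PI3K inhibitors. Dosing: clinically relevant, half-log spacing, 10 microM ceiling without known Cmax. Read-out: cell viability.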

[1] = second compound 0.0316 µM, first compound 0.0316 µM
[2] = second compound 0.0316 µM, first compound 0.1 µM
[3] = second compound 0.0316 µM, first compound 0.316 µM
[4] = second compound 0.0316 µM, first compound 1 µM
[5] = second compound 0.0316 µM, first compound 3.16 µM
[6] = second compound 0.0316 µM, first compound 10 µM
[7] = second compound 0.1 µM, first compound 0.0316 µM
[8] = second compound 0.1 µM, first compound 0.1 µM
[9] = second compound 0.1 µM, first compound 0.316 µM
[10] = second compound 0.1 µM, first compound 1 µM
[11] = second compound 0.1 µM, first compound 3.16 µM
[12] = second compound 0.1 µM, first compound 10 µM
[13] = second compound 0.316 µM, first compound 0.0316 µM
[14] = second compound 0.316 µM, first compound 0.1 µM
[15] = second compound 0.316 µM, first compound 0.316 µM
[16] = second compound 0.316 µM, first compound 1 µM
[17] = second compound 0.316 µM, first compound 3.16 µM
[18] = second compound 0.316 µM, first compound 10 µM
[19] = second compound 1 µM, first compound 0.0316 µM
[20] = second compound 1 µM, first compound 0.1 µM
[21] = second compound 1 µM, first compound 0.316 µM
[22] = second compound 1 µM, first compound 1 µM
[23] = second compound 1 µM, first compound 3.16 µM
[24] = second compound 1 µM, first compound 10 µM
[25] = second compound 3.16 µM, first compound 0.0316 µM
[26] = second compound 3.16 µM, first compound 0.1 µM
[27] = second compound 3.16 µM, first compound 0.316 µM
[28] = second compound 3.16 µM, first compound 1 µM
[29] = second compound 3.16 µM, first compound 3.16 µM
[30] = second compound 3.16 µM, first compound 10 µM
[31] = second compound 10 µM, first compound 0.0316 µM
[32] = second compound 10 µM, first compound 0.1 µM
[33] = second compound 10 µM, first compound 0.316 µM
[34] = second compound 10 µM, first compound 1 µM
[35] = second compound 10 µM, first compound 3.16 µM
[36] = second compound 10 µM, first compound 10 µM
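Note: spheroids exposed to agents for seven days before read-out.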

C=CC(=O)N1CCN(c2nc(=O)n(-c3c(C)ccnc3C(C)C)c3nc(-c4c(O)cccc4F)c(F)cc23)C(C)C1 (stereo unspecified) + COc1c(OCCCN2CCOCC2)ccc2c3n(c(=NC(=O)c4cnc(N)nc4)nc12)CCN3
0.692 µM: IC50 (second compound 0.1 µM)
5 µM: IC50 (second compound 0.01 µM)
0.554 µM: IC50 (second compound 0.316 µM)
inactive: viability, T/C (second compound 0.00316 µM, first compound 0.0316 µM) 98.1% | viability, T/C (second compound 0.00316 µM, first compound 0.1 µM) 95.5% | viability, T/C (second compound 0.00316 µM, first compound 0.316 µM) 97.4% | viability, T/C (second compound 0.00316 µM, first compound 1 µM) 82.1% | viability, T/C (second compound 0.00316 µM, first compound 3.16 µM) 45.7% | viability, T/C (second compound 0.00316 µM, first compound 10 µM) 44.7% | viability, T/C (second compound 0.01 µM, first compound 0.0316 µM) 103% | viability, T/C (second compound 0.01 µM, first compound 0.1 µM) 82.8% | viability, T/C (second compound 0.01 µM, first compound 0.316 µM) 89.3% | viability, T/C (second compound 0.01 µM, first compound 1 µM) 63% | viability, T/C (second compound 0.01 µM, first compound 3.16 µM) 57.1% | viability, T/C (second compound 0.01 µM, first compound 10 µM) 41.4% | viability, T/C [1] 116% | viability, T/C [2] 99.6% | viability, T/C [3] 73.8% | viability, T/C [4] 76.2% | viability, T/C [5] 48.6% | viability, T/C [6] 29.4% | viability, T/C [7] 71.9% | viability, T/C [8] 91.2% | viability, T/C [9] 61.1% | viability, T/C [10] 44.9% | viability, T/C [11] 41.9% | viability, T/C [12] 28.3% | viability, T/C [13] 67.7% | viability, T/C [14] 59.5% | viability, T/C [15] 66% | viability, T/C [16] 34.8% | viability, T/C [17] 19.5% | viability, T/C [18] 16.3% | viability, T/C [19] 50.8% | viability, T/C [20] 61.1% | viability, T/C [21] 42.2% | viability, T/C [22] 22.6% | viability, T/C [23] 15.1% | viability, T/C [24] 14.2%
2.76 µM: IC50 (second compound 0.00316 µM)
2.95 µM: IC50 (second compound 0.0316 µM)
0.166 µM: IC50 (second compound 1 µM)

C#Cc1c(F)ccc2cc(O)cc(-c3ncc4c(N5CC6CCC(C5)N6)nc(OCC56CCCN5CC(F)C6)nc4c3F)c12 (stereo unspecified) + Cc1nc(NC(=O)N2CCCC2C(N)=O)sc1-c1ccnc(C(C)(C)C(F)(F)F)c1
> 10 µM: IC50 (second compound 0.0316 µM) | IC50 (second compound 0.1 µM) | IC50 (second compound 0.316 µM) | IC50 (second compound 1 µM) | IC50 (second compound 3.16 µM)
7.68 µM: IC50 (second compound 10 µM)
inactive: viability, T/C [1] 108% | viability, T/C [2] 97.4% | viability, T/C [3] 99.1% | viability, T/C [4] 95.5% | viability, T/C [5] 93.7% | viability, T/C [6] 83.2% | viability, T/C [7] 122% | viability, T/C [8] 97% | viability, T/C [9] 102% | viability, T/C [10] 88.7% | viability, T/C [11] 92.9% | viability, T/C [12] 82.2% | viability, T/C [13] 93.4% | viability, T/C [14] 96.2% | viability, T/C [15] 93.7% | viability, T/C [16] 83.8% | viability, T/C [17] 90.2% | viability, T/C [18] 77.7% | viability, T/C [19] 89.5% | viability, T/C [20] 92.4% | viability, T/C [21] 89% | viability, T/C [22] 85% | viability, T/C [23] 87.8% | viability, T/C [24] 76.5% | viability, T/C [25] 74.3% | viability, T/C [26] 78.9% | viability, T/C [27] 87.3% | viability, T/C [28] 75.3% | viability, T/C [29] 77.4% | viability, T/C [30] 63.5% | viability, T/C [31] 75.6% | viability, T/C [32] 69.2% | viability, T/C [33] 67.3% | viability, T/C [34] 63.1% | viability, T/C [35] 57.6% | viability, T/C [36] 47.3%

CC(C)NCC(C(=O)N1CCN(c2ncnc3c2C(C)CC3O)CC1)c1ccc(Cl)cc1 (stereo unspecified) + CC(Nc1ncnc2nc[nH]c12)c1cc2cccc(Cl)c2c(=O)n1-c1ccccc1
inactive: viability, T/C [1] 98.2% | viability, T/C [2] 107% | viability, T/C [3] 101% | viability, T/C [4] 96.4% | viability, T/C [5] 102% | viability, T/C [6] 98.5% | viability, T/C [7] 111% | viability, T/C [8] 115% | viability, T/C [9] 99.3% | viability, T/C [10] 89.6% | viability, T/C [11] 94.9% | viability, T/C [12] 83.4% | viability, T/C [13] 96.6% | viability, T/C [14] 97.2% | viability, T/C [15] 87.1% | viability, T/C [16] 105% | viability, T/C [17] 105% | viability, T/C [18] 102% | viability, T/C [19] 106% | viability, T/C [20] 100% | viability, T/C [21] 104% | viability, T/C [22] 98.4% | viability, T/C [23] 115% | viability, T/C [24] 101% | viability, T/C [25] 79.2% | viability, T/C [26] 88.4% | viability, T/C [27] 101% | viability, T/C [28] 99.2% | viability, T/C [29] 97.5% | viability, T/C [30] 85.7% | viability, T/C [31] 110% | viability, T/C [32] 89.5% | viability, T/C [33] 77.5% | viability, T/C [34] 88.6% | viability, T/C [35] 103% | viability, T/C [36] 87.2%
> 10 µM: IC50 (second compound 0.0316 µM) | IC50 (second compound 0.1 µM) | IC50 (second compound 0.316 µM) | IC50 (second compound 1 µM) | IC50 (second compound 3.16 µM) | IC50 (second compound 10 µM)
